From PMC8222254, “Self-assembly of an anion receptor with metal-dependent kinase inhibition and potent in vitro anti-cancer properties” (Nature Communications, 2021)
Values joined by “and” are separate entries in the source; they are usually repeats but may differ in a detail not shown here. Identical values can stand only once.

Columns and labels:
Experiment in all cases: Kinase inhibition screen, cell-free 33P ATP assay at 10 μM
Type in all cases: biochemical
[1] = target: 140 purified human kinases (Homo sapiens, UniProt Q9Y4K4)
Chain of 140 purified human kinases (Homo sapiens, UniProt Q9Y4K4) (Q9Y4K4 whole entry): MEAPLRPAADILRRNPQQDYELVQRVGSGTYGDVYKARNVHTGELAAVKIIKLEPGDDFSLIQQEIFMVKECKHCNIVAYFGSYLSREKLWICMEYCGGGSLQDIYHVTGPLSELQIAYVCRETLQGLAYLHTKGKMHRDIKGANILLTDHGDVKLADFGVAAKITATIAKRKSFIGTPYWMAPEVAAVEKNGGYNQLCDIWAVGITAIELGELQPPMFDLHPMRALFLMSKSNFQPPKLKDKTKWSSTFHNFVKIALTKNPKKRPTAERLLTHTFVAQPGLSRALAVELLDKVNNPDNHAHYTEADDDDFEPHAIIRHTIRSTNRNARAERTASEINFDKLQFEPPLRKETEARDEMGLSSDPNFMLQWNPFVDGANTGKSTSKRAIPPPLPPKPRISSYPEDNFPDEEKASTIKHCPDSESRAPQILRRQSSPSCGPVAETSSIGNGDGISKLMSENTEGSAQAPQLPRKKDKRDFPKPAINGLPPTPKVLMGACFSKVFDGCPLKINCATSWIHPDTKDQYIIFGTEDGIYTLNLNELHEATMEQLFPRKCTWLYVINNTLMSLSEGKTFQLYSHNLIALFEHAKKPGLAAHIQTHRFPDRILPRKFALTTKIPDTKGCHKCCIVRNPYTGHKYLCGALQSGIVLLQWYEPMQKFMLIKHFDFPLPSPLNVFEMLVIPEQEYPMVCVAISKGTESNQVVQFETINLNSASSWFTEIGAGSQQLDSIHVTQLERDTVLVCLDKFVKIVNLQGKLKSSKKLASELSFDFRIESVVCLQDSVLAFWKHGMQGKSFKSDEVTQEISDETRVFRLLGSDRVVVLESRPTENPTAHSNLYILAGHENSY
Method in brief: (§1)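 Radiometric ^33P ATP cell-free format with purified enzymes; both complexes run at 10 μM in duplicate, results plotted on a kinome map via HGNC symbols.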

[2] = target: 140 purified human kinases (Homo sapiens, UniProt Q15303)
Chain of 140 purified human kinases (Homo sapiens, UniProt Q15303) (Q15303 26-1308): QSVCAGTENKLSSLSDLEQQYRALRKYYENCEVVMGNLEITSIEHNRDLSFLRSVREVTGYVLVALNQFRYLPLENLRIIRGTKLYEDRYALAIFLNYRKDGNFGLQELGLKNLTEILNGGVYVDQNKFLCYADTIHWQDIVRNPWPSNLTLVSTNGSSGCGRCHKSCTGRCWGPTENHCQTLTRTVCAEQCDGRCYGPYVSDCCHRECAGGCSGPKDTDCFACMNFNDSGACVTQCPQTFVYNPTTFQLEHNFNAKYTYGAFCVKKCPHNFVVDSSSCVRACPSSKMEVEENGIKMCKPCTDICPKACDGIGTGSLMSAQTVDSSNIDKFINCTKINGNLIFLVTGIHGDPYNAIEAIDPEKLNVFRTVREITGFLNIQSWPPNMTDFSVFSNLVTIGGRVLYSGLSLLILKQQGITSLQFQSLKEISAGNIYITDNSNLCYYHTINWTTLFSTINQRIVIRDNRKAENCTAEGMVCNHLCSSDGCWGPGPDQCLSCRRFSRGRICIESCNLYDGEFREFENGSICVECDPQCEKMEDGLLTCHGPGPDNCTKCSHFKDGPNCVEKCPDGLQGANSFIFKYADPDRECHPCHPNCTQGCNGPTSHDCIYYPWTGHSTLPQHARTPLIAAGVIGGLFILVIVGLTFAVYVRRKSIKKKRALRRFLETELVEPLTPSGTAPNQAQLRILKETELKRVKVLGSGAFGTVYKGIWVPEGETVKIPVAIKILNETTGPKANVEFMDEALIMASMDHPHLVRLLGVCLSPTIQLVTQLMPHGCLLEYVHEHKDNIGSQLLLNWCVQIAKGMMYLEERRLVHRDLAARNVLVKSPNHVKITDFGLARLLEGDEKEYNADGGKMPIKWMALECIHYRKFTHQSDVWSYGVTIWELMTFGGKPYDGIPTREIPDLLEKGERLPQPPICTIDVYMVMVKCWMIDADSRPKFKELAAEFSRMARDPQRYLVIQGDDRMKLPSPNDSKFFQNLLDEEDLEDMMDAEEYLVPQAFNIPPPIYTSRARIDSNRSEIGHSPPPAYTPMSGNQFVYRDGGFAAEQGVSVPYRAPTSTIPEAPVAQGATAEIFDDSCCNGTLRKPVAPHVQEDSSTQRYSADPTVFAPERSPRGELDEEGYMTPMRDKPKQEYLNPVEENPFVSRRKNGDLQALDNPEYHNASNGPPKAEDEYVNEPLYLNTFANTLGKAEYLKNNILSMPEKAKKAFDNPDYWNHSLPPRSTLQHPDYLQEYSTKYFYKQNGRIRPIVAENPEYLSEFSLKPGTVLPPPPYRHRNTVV
Method in brief: as §1

[3] = target: 140 purified human kinases (Homo sapiens, UniProt P04629); settings: TrkA
Chain of 140 purified human kinases (Homo sapiens, UniProt P04629) (P04629 33-796): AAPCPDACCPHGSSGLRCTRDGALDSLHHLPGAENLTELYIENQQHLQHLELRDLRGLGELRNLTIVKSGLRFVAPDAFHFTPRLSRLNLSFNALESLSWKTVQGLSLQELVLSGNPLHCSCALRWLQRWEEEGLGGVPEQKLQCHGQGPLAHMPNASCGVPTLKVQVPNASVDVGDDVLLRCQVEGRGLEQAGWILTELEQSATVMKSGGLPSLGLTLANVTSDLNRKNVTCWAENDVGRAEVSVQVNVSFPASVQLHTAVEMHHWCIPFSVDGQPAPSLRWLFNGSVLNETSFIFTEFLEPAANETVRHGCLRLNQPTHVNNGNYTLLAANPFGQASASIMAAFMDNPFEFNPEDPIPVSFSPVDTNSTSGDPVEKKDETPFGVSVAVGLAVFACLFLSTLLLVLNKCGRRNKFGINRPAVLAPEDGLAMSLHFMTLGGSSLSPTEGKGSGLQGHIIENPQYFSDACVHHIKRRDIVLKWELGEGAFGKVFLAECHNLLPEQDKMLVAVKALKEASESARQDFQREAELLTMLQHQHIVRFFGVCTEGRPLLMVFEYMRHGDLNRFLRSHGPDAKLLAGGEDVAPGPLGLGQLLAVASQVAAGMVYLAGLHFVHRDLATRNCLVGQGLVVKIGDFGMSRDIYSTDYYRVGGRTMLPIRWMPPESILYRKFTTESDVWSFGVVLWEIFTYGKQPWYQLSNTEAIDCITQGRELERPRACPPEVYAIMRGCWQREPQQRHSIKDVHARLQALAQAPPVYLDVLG
Method in brief: as §1

[4] = target: T1, 140 purified human kinases (Homo sapiens, UniProt Q92630)
T1 sequence (Q92630 1-601): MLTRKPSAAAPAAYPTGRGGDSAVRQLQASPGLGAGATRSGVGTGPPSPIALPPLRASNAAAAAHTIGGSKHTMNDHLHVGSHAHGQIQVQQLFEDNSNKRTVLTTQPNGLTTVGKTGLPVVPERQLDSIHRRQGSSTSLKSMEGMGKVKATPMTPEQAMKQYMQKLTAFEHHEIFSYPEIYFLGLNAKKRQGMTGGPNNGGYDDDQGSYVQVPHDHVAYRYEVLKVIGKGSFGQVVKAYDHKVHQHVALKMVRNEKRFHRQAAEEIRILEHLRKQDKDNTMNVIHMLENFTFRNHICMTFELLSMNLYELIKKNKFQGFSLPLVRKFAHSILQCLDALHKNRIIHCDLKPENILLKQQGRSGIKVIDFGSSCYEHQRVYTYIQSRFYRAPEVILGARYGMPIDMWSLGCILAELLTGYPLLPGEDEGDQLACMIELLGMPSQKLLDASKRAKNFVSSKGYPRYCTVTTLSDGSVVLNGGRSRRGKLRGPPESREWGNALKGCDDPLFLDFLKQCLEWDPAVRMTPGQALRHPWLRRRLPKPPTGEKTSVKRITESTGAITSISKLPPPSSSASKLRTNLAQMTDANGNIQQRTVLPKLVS
Method in brief: as §1

[5] = target: 140 purified human kinases (Homo sapiens, UniProt P06213); settings: IR
Chain of 140 purified human kinases (Homo sapiens, UniProt P06213) (P06213 28-1382): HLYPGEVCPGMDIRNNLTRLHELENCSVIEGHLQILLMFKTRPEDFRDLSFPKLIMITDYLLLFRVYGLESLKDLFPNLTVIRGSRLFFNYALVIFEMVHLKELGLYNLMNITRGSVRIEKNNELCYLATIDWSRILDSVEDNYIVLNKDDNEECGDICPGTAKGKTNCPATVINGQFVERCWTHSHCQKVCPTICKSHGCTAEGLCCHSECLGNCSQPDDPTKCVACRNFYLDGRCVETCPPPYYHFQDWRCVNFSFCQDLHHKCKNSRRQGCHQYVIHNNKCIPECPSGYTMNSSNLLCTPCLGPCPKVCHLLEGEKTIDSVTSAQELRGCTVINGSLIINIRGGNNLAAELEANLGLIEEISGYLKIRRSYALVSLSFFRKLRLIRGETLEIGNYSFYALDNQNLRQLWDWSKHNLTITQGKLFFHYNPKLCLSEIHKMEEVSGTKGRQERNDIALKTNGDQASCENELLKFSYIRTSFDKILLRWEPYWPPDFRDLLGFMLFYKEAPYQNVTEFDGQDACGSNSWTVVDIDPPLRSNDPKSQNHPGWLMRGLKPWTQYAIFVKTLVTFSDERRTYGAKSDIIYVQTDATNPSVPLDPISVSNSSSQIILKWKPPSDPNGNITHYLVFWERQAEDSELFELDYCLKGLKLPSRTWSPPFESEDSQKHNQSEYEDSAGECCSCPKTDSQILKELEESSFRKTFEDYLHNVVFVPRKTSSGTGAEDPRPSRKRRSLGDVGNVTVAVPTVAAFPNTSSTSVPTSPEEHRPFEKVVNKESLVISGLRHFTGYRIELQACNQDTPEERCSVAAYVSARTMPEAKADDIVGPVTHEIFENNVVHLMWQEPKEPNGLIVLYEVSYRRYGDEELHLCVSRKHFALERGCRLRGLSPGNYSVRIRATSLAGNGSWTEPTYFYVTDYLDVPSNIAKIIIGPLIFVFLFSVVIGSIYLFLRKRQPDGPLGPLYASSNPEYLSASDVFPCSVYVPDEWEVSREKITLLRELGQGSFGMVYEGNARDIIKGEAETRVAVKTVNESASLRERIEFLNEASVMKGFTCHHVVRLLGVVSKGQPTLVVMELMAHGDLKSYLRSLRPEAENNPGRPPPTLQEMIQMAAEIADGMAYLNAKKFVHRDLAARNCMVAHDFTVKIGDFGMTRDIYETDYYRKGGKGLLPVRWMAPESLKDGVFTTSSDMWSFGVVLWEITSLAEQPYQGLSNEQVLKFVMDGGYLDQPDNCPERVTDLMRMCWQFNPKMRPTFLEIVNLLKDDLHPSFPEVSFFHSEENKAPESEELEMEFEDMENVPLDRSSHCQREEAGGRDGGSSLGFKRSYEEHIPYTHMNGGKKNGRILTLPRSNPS
Method in brief: as §1

[6] = target: T2, 140 purified human kinases (Homo sapiens, UniProt Q8IWQ3)
T2 sequence (Q8IWQ3 1-736): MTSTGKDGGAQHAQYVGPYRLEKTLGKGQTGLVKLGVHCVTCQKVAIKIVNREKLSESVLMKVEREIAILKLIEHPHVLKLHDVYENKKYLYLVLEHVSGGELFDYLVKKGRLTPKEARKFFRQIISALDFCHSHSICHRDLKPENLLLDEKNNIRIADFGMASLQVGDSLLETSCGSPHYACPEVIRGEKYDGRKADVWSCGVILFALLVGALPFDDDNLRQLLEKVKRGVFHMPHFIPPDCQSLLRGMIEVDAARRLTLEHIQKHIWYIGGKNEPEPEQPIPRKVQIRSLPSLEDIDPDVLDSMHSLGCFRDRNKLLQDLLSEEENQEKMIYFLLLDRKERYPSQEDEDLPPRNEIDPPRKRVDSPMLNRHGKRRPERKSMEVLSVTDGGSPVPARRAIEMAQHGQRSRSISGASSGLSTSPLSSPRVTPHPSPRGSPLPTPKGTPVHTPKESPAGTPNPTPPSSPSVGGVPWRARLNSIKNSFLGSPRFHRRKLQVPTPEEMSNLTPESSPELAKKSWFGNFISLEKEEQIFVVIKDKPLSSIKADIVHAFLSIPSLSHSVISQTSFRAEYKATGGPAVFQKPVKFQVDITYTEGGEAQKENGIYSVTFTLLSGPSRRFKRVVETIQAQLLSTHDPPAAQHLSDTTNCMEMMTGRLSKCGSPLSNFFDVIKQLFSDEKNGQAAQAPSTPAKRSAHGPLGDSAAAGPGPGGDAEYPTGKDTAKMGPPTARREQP
Method in brief: as §1

SMILES: [Cu+2].[Cu+2].[Cu+2].c1ccc(-c2csc(NCCN(CCNc3nc(-c4ccccn4)cs3)CCNc3nc(-c4ccccn4)cs3)n2)nc1.c1ccc(-c2csc(NCCN(CCNc3nc(-c4ccccn4)cs3)CCNc3nc(-c4ccccn4)cs3)n2)nc1 [[L2Cu3]6+]
- % Inhibition Run 1 ([1]; MAP4K5): 54.5%
- % Inhibition Run 2 ([1]; MAP4K5): 51.4%
- % Inhibition, Mean ([1]; MAP4K5): 53%
- mean % activity ([1]; MAP4K5): 47%
- % activity ([1]; MAP4K5, Run 1): 45.5%
- % activity ([1]; MAP4K5, Run 2): 48.6%
- % Inhibition Run 1 ([2]; HER4): 32.7%
- % Inhibition Run 2 ([2]; HER4): 23.3%
- % Inhibition, Mean ([2]; HER4): 28%
- mean % activity ([2]; HER4): 72%
- % activity ([2]; HER4, Run 1): 67.3%
- % activity ([2]; HER4, Run 2): 76.7%
- % Inhibition Run 1 [3]: 78.1%
- % Inhibition Run 2 [3]: 61.2%
- % Inhibition, Mean [3]: 70%
- mean % activity [3]: 30%
- % activity ([3]; Run 1): 21.9%
- % activity ([3]; Run 2): 38.8%
- % Inhibition Run 1 ([4]; DYRK2): 27.2%
- % Inhibition Run 2 ([4]; DYRK2): -2.7%
- % Inhibition, Mean ([4]; DYRK2): 12%
- mean % activity ([4]; DYRK2): 88%
- % activity ([4]; DYRK2, Run 1): 72.8%
- % activity ([4]; DYRK2, Run 2): 102.7%
- % Inhibition Run 1 [5]: 20%
- % Inhibition Run 2 [5]: 18.1%
- % Inhibition, Mean [5]: 19%
- mean % activity [5]: 81%
- % activity ([5]; Run 1): 80%
- % activity ([5]; Run 2): 81.9%
- % Inhibition Run 1 ([6]; BRSK2): 77.8%
- % Inhibition Run 2 ([6]; BRSK2): 75.3%
- % Inhibition, Mean ([6]; BRSK2): 77%
- mean % activity ([6]; BRSK2): 23%
- % activity ([6]; BRSK2, Run 1): 22.2%
- % activity ([6]; BRSK2, Run 2): 24.7%

SMILES: CC(=O)[O-].CC(=O)[O-].CC(=O)[O-].CC(=O)[O-].CC(=O)[O-].CC(=O)[O-].[Zn+2].[Zn+2].[Zn+2].c1ccc(-c2csc(NCCN(CCNc3nc(-c4ccccn4)cs3)CCNc3nc(-c4ccccn4)cs3)n2)nc1.c1ccc(-c2csc(NCCN(CCNc3nc(-c4ccccn4)cs3)CCNc3nc(-c4ccccn4)cs3)n2)nc1 [[L2Zn3]6+]
- % Inhibition, Mean ([1]; MAP4K5): 60%
- % Inhibition, Run 1 / Run 2 ([1]; MAP4K5): 60% and 59%
- mean % activity ([1]; MAP4K5): 40%
- % activity ([1]; MAP4K5, duplicate runs): 40% and 41%
- % Inhibition, Mean ([2]; HER4): 3.65%
- mean % activity ([2]; HER4): 96%
- % activity ([2]; HER4, duplicate runs): 88% and 105%
- % Inhibition, Mean [3]: 87%
- % Inhibition, Run 1 / Run 2 [3]: 88% and 86%
- mean % activity [3]: 13%
- % Activity inhibition Mean ([3]; 10 µM): 86.5%
- % Activity inhibition Run 1 ([3]; 10 µM): 88%
- % Activity inhibition Run 2 ([3]; 10 µM): 85%
- % Activity remaining Run 1 ([3]; 10 µM): 12%
- % Activity remaining Run 2 ([3]; 10 µM): 15%
- % activity ([3]; duplicate runs): 12% and 15%
- % Activation, Mean value ([4]; DYRK2): 4.5%
- % Inhibition, Mean ([4]; DYRK2): -4.5%
- mean % activity ([4]; DYRK2): 105%
- % activity ([4]; DYRK2, duplicate runs): 97% and 112%
- % Inhibition, Mean [5]: 12%
- mean % activity [5]: 88%
- % activity ([5]; duplicate runs): 80% and 95%
- % Inhibition, Mean ([6]; BRSK2): 37%
- % Inhibition, Run 1 / Run 2 ([6]; BRSK2): 44% and 30%
- mean % activity ([6]; BRSK2): 63%
- % activity ([6]; BRSK2, duplicate runs): 56% and 70%
